Test results reported in patent publication US20250270217A1, “IMIDAZ0[1,2-A]PYRIMIDINE-5(1 H)-ONES HAVING A COVALENT WARHEAD AT THE 3-POSITION AS WRN INHIBITORS” (Incyte Corporation, priority 2023, published 2025).

Assays:
WRN [1] = target: T1, WRN (Homo sapiens, UniProt Q14191); assay: WRN ATPase activity assay (ADP-Glo); format: biochemical; conditions: 1-hr pre-incubation with enzyme; 100 μM ATP, 25 nM forked dsDNA, 1 nM WRN; geometric mean of at least 2 replicates
T1 construct: A His-tagged construct of WRN (AA S2-S1235) was produced and used for the ATPase assay; His; made in house; host or cells: Sf9 insect cells (baculovirus)
Method: Compounds of the Examples were tested for WRN ATPase activity. WRN ATPase activity catalyzes ATP hydrolysis to produce ADP and phosphate. DNA encoding the target protein, 6×HIS-TEV-WRN-517-945, was produced, cloned and transfected as detailed in Example D. The amount of ADP produced was measured using ADP-Glo™ Kinase Assay kit from Promega Corporation in a Greiner white regular volume 384 wells assay plate (Greiner #781075). Data was normalized to a standard curve generated using various ADP concentrations and the corresponding luminescent signal intensities at each concentration. The assay conditions were optimized for enzyme concentration (WRN), substrate concentrations (ATP & dsDNA), and the linearity of the ATPase reaction, in the following assay buffer: 50 mM Tris-HCl, pH-7.5, 2 mM MgCl2, 50 mM NaCl, 1 mM EGTA, 0.01% P-20, 0.05% BSA, and 2 mM DTT prepared with nuclease free water.
A serial dilution (1:3 scheme) of the compounds were prepared in neat DMSO, with 100 nL of the compounds dispensed in the 384 wells assay plate. An 1-hr pre-incubation of the compounds with enzyme was included. A His-tagged construct of WRN (AA S2-S1235) was produced and used for the ATPase assay. Maximum inhibition control wells were set up with the addition of only assay buffer, and no inhibition control wells were set up with neat DMSO without test compounds. The reaction was initiated by addition of 5 μL substrate mix (200 μM ultrapure ATP, and 50 nM dsDNA prepared in assay buffer) and incubated at 25° C. for 35 min. A forked dsDNA oligomer substrate was prepared by annealing equal amounts of oligo GPat-1 ([BHQ2][…]) and oligo GPat-2 ([…][TAM]) and was used as dsDNA substrate for WRN ATPase assay. A typical ATPase reaction consists of 25 nM forked dsDNA, 100 μM ATP, and 1 nM WRN prepared in assay buffer. The WRN ATPase reaction was stopped by the addition of 5 μL of ADP-Glo Reagent from ADP-Glo™ Kinase Assay kit and incubated for 40 min to deplete the unreacted ATP. Afterwards, 5 μL of Kinase Detection Reagent from the ADP-Glo™ Kinase Assay kit was added and incubated for 1 hr for the development of luminescence signal.
Luminesce signals were measured on BMG PHERAstar FSX using luminescence protocol. Data analysis was carried out using Genedata software following % of control normalization. Fitting parameters include dose response IC50, Hill slope (n), maximum inhibition (S∞), and minimum inhibition (S0). The reported IC50 values for compounds in this invention are the geometric means of at least 2 independent replicates.

WRN [2] = target: T1, WRN; assay: WRN Helicase activity assay (fluorescence DNA unwinding); format: biochemical; conditions: 1-hr pre-incubation with enzyme; 100 μM ATP, 25 nM forked dsDNA, 1 nM WRN; geometric mean of at least 2 replicates
Method: Compounds of the examples were tested for WRN helicase activity. DNA encoding the target protein, 6×HIS-TEV-WRN-517-945, was produced, cloned and transfected as detailed in Example D. To determine the inhibitory properties of the compounds, a 384 wells plate-based Helicase assay was set up to measure the extent of DNA unwinding (Helicase) activity of WRN. The WRN Helicase assay was designed to measure increase in fluorescence signal using a fluorescence based, donor-quencher paired forked dsDNA oligomer substrate (custom synthesis from Sigma-Aldrich) prepared by annealing equal amounts of oligo GPat-1 ([BHQ2][…]) and oligo GPat-2 ([…][TAM]). Continuous measurement of fluorescent signal was used to optimize the buffer conditions, concentration of enzyme (WRN), concentration of substrates (ATP & dsDNA), and the linearity of the Helicase reaction. All solutions were prepared in the following assay buffer: 50 mM Tris-HCl, pH-7.5, 2 mM MgCl2, 50 mM NaCl, 1 mM EGTA, 0.01% P-20, 0.05% BSA, and 2 mM DTT prepared with nuclease free water.
A serial dilution (1:3 scheme) of the compounds was prepared in neat DMSO and 100 nL of the compounds was dispensed in the Greiner black low volume (Greiner #784076) 384 wells assay plate. An 1-hr pre-incubation of the compounds with enzyme was included. A His-tagged construct of WRN (AA S2-S1235) was produced and used for the ATPase assay. Maximum inhibition control wells were set up with the addition of only assay buffer, and no inhibition control wells were set up with neat DMSO without test compounds. The reaction was initiated by addition of 5 μL substrate mix (200 μM ultrapure ATP, and 50 nM dsDNA prepared in assay buffer) and incubated at 25° C. for 35 min. A typical Helicase reaction consists of 25 nM forked dsDNA, 100 μM ATP, and 1 nM WRN prepared in assay buffer. The WRN Helicase reaction was quenched by the addition of 5 μL ‘STOP’ solution containing 100 mM EDTA (final EDTA concentration 33.33 mM) prepared in assay buffer. The plates were read on BMG PHERAstar FSX using 540/590 module to measure an increase of fluorescence. Data analysis was carried out using the Genedata software following % of control normalization. Fitting parameters include dose response IC50, Hill slope (n), maximum inhibition (S∞), and minimum inhibition (S0). The reported IC50 values for compounds in this invention are the geometric means of at least 2 independent replicates.

T1 sequence (Q14191 2-1235): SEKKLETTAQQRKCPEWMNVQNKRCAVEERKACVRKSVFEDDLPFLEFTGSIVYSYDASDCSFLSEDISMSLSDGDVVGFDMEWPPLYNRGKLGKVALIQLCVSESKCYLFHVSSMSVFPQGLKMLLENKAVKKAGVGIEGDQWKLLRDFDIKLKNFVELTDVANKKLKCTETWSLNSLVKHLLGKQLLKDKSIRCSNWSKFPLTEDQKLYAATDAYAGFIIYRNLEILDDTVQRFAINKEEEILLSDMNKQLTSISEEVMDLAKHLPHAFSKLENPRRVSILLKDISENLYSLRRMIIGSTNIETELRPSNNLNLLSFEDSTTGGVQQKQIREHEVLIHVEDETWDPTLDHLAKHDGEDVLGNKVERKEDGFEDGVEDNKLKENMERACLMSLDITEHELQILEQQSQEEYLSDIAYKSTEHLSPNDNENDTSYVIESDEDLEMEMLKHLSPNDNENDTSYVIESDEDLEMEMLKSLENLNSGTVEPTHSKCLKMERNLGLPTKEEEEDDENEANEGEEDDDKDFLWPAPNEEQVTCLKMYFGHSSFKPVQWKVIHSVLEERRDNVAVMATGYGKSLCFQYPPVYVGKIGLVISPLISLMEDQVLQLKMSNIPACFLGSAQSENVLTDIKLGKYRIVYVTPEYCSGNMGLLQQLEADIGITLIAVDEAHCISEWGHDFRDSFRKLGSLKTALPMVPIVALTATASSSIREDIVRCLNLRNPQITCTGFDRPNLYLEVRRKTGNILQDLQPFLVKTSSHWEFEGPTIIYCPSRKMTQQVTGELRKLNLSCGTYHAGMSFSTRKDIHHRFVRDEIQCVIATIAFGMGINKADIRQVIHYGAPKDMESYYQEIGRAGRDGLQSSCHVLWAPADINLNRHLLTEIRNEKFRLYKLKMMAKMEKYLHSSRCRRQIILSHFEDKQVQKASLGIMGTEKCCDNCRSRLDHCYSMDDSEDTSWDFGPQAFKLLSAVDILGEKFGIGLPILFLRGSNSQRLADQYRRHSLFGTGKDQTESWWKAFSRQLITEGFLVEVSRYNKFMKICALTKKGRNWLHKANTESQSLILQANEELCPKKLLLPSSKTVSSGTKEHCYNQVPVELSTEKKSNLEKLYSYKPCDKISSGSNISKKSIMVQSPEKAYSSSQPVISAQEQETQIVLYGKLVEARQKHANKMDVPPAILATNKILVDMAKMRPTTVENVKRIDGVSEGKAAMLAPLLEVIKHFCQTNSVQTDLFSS

Structure (SMILES)	IC50 (WRN [1])	IC50 (WRN [2])
C=CC(=O)Nc1ccccc1-c1c(C)n(CC(=O)Nc2ccc(C(F)(F)F)cc2)c2nc(CC)c(C)c(=O)n12 [Example 39, N-(2-(7-Ethyl-2,6-dimethyl-5-oxo-1-(2-oxo-2-((4-(trifluoromethyl)phenyl)amino)ethyl)-1,5-dihydroimidazo[1,2-a]pyrimidin-3-yl)phenyl)acrylamide]	100 to 500 nM	100 to 500 nM
C=CC(=O)Nc1c(Cl)cccc1-c1c(CC)nc2n(CC(=O)Nc3ccc(Cl)cc3)c(C)cn2c1=O [Example 43, N-(2-chloro-6-(1-(2-((4-chlorophenyl)amino)-2-oxoethyl)-7-ethyl-2-methyl-5-oxo-1,5-dihydroimidazo[1,2-a]pyrimidin-6-yl)phenyl)acrylamide]	< 100 nM	< 100 nM
C=CC(=O)Nc1cc(C(=O)NC2CC2)ccc1-c1c(CC)nc2n(CC(=O)Nc3ccc(C(F)(F)F)cc3)c(C)c(C)n2c1=O [Example 23, 3-Acrylamido-N-cyclopropyl-4-(7-ethyl-2,3-dimethyl-5-oxo-1-(2-oxo-2-((4-(trifluoromethyl)phenyl)amino)ethyl)-1,5-dihydroimidazo[1,2-a]pyrimidin-6-yl)benzamide]	< 100 nM	< 100 nM
C=CC(=O)Nc1ncccc1-c1c(CC)nc2n(CC(=O)Nc3ccc(C(F)(F)F)cc3)c(C)cn2c1=O [Example 4, N-(3-(7-Ethyl-2-methyl-5-oxo-1-(2-oxo-2-((4-(trifluoromethyl)phenyl)amino)ethyl)-1,5-dihydroimidazo[1,2-a]pyrimidin-6-yl)pyridin-2-yl)acrylamide]	< 100 nM	< 100 nM
C=CC(=O)Nc1cc(C(=O)NCC(F)F)ccc1-c1c(CC)nc2n(CC(=O)Nc3ccc(C(F)(F)F)cc3)c(C)cn2c1=O [Example 11, 3-Acrylamido-N-(2,2-difluoroethyl)-4-(7-ethyl-2-methyl-5-oxo-1-(2-oxo-2-((4-(trifluoromethyl)phenyl)amino)ethyl)-1,5-dihydroimidazo[1,2-a]pyrimidin-6-yl)benzamide]	< 100 nM	< 100 nM
C=CC(=O)Nc1cc(C(=O)NC2CC2)ccc1-c1c(CC)nc2n(CC(=O)Nc3ccc(F)cc3Cl)c(C)cn2c1=O [Example 9, 3-Acrylamido-4-(1-(2-((2-chloro-4-fluorophenyl)amino)-2-oxoethyl)-7-ethyl-2-methyl-5-oxo-1,5-dihydroimidazo[1,2-a]pyrimidin-6-yl)-N-cyclopropylbenzamide]	< 100 nM	< 100 nM
C=CC(=O)Nc1ccccc1-c1c(CC)nc2n(CC(=O)Nc3ccc(C(F)(F)F)cc3)c(C)c(C)n2c1=O [Example 21, N-(2-(7-Ethyl-2,3-dimethyl-5-oxo-1-(2-oxo-2-((4-(trifluoromethyl)phenyl)amino)ethyl)-1,5-dihydroimidazo[1,2-a]pyrimidin-6-yl)phenyl)acrylamide]	< 100 nM	< 100 nM
C=CS(=O)(=O)Nc1ccccc1-c1c(CC)nc2n(CC(=O)Nc3ccc(C(F)(F)F)cc3)c(C)cn2c1=O [Example 6, 2-(7-Ethyl-2-methyl-5-oxo-6-(2-(vinylsulfonamido)phenyl)imidazo[1,2-a]pyrimidin-1(5H)-yl)-N-(4-(trifluoromethyl)phenyl)acetamide]	< 100 nM	< 100 nM
C=CC(=O)Nc1ccccc1-c1c(C)nc2n(CC(=O)Nc3ccc(F)cc3)c(C)c(C)n2c1=O [Example 19, N-(2-(1-(2-((4-Fluorophenyl)amino)-2-oxoethyl)-2,3,7-trimethyl-5-oxo-1,5-dihydroimidazo[1,2-a]pyrimidin-6-yl)phenyl)acrylamide]	< 100 nM	< 100 nM

The next lines start with the values.

IC50 (WRN [1])	IC50 (WRN [2])	Structure (SMILES)
< 100 nM	< 100 nM	C=CC(=O)Nc1cc(C(=O)NCCOC)ccc1-c1c(CC)nc2n(CC(=O)Nc3ccc(C(F)(F)F)cc3)c(C)c(C)n2c1=O [Example 31, 3-Acrylamido-4-(7-ethyl-2,3-dimethyl-5-oxo-1-(2-oxo-2-((4-(trifluoromethyl)phenyl)amino)ethyl)-1,5-dihydroimidazo[1,2-a]pyrimidin-6-yl)-N-(2-methoxyethyl)benzamide]
< 100 nM	< 100 nM	C=CC(=O)Nc1cc(C(=O)NC2(C)CC2)ccc1-c1c(CC)nc2n(CC(=O)Nc3ccc(C(F)(F)F)cc3)c(C)cn2c1=O [Example 10, 3-Acrylamido-4-(7-ethyl-2-methyl-5-oxo-1-(2-oxo-2-((4-(trifluoromethyl)phenyl)amino)ethyl)-1,5-dihydroimidazo[1,2-a]pyrimidin-6-yl)-N-(1-methylcyclopropyl)benzamide]
< 100 nM	< 100 nM	C=CC(=O)Nc1cc(C(=O)NC2CC2)ccc1-c1c(CC)nc2n(CC(=O)Nc3ccc(F)cc3Cl)c(C)c(C)n2c1=O [Example 25, 3-Acrylamido-4-(1-(2-((2-chloro-4-fluorophenyl)amino)-2-oxoethyl)-7-ethyl-2,3-dimethyl-5-oxo-1,5-dihydroimidazo[1,2-a]pyrimidin-6-yl)-N-cyclopropylbenzamide]
< 100 nM	< 100 nM	C=CC(=O)Nc1ccccc1-c1c(CC)nc2n(CC(=O)Nc3ccc(F)cc3)c(C)c(C)n2c1=O [Example 18, N-(2-(7-Ethyl-1-(2-((4-fluorophenyl)amino)-2-oxoethyl)-2,3-dimethyl-5-oxo-1,5-dihydroimidazo[1,2-a]pyrimidin-6-yl)phenyl)acrylamide]
< 100 nM	< 100 nM	C=CS(=O)(=O)Nc1ccccc1-c1c(C)n(CC(=O)Nc2ccc(F)cc2)c2nc(CC)c(-c3ccccc3)c(=O)n12 [Example 38, 2-(7-Ethyl-2-methyl-5-oxo-6-phenyl-3-(2-(vinylsulfonamido)phenyl)imidazo[1,2-a]pyrimidin-1(5H)-yl)-N-(4-fluorophenyl)acetamide]
